Experiments:
Format in all cases: in vivo, Balb/c mice
[1] = system: BLG-stimulated lymphocytes; assay: Cytokine ELISA (IFN-γ) in supernatants of BLG-stimulated spleen cells from treated mice; conditions: mice fed whey proteins 3 mg/g on day 0; drug daily day -3 to day 4; 5 days after tolerization; whey vs non-tolerized control mice, drugs vs whey proteins fed mice
Protocol: To start the experiment the mice were forced fed and/or injected i.p. with butyrate (which promotes COX-2 activity), ibuprofen (which inhibits COX activity) or saline (control) daily from day −3 to day 4. On day 0, the mice were fed by gastric feeding whey proteins (3 mg/g of body weight) or same volume of saline water. Gavage products were dissolved in 0.3 ml of saline water. At day 4 of each experiment, all mice were immunized by intraperitoneal injection of 0.08 mg of BLG as well as 0.08 mg of OVA in 0.04 ml sterile saline mixed with 0.16 ml 2% Al(OH)3 (Superfos Biosecotr A/S, Denmark). At day 4 or at day 26, blood samples were obtained from cardiac aortic punction under 3% Isoflurane anaesthesia (Abbott SA). Immediately after death, obtained by cervical dislocation, spleens were removed and pooled according to group of treatment in 20 ml chilled RPMI supplemented with 5% FCS. […] (^3H)Tdr (Amersham, Zurich) was added for the final 6 hours of culture and the plates were harvested and analyzed by scintillation counting (TopCount, Canberra Packard, Zurich). […] Stimulation indices were calculated as the ratio of blank-subtracted test and control values at 2.5 mg BLG/mL and 50 μg PHA/mL. […] IFN-γ levels were measured using cytokine specific ELISA kit Endogen; which were performed according to the manufacturers' instructions. […]

[2] = system: anti-BLG IgE; assay: Measurement of specific anti-BLG IgE antibody in serum by ELISA; conditions: 26 days post-tolerization; whey vs non-tolerized mice (p<0.05), drugs vs whey proteins fed mice
Protocol: To start the experiment the mice were forced fed and/or injected i.p. with butyrate (which promotes COX-2 activity), ibuprofen (which inhibits COX activity) or saline (control) daily from day −3 to day 4. On day 0, the mice were fed by gastric feeding whey proteins (3 mg/g of body weight) or same volume of saline water. Gavage products were dissolved in 0.3 ml of saline water. At day 4 of each experiment, all mice were immunized by intraperitoneal injection of 0.08 mg of BLG as well as 0.08 mg of OVA in 0.04 ml sterile saline mixed with 0.16 ml 2% Al(OH)3 (Superfos Biosecotr A/S, Denmark). […] (^3H)Tdr (Amersham, Zurich) was added for the final 6 hours of culture and the plates were harvested and analyzed by scintillation counting (TopCount, Canberra Packard, Zurich). […] Stimulation indices were calculated as the ratio of blank-subtracted test and control values at 2.5 mg BLG/mL and 50 μg PHA/mL. […] Optical densities were measured at 492 nm, after 15 mn of incubation at room temperature, using a Dynatech MR500 ELISA reader (Dynatech, Embrach-Embraport, Switzerland. Pooled samples from twenty non immunized female mice were used as negative controls in each plate. The cut-off dilutions were determined by calculating the dilution of the samples which gave twice the absorbance of the negative controls. Titers were expressed as the log10 of the reciprocal of the cut-off dilution.

[3] = system: spleen cells; assay: Specific proliferation assay ((3H)Tdr incorporation) of spleen cells from treated mice; conditions: 4 days post-tolerization; index below 0.5 indicates tolerized mice; drugs compared with whey proteins fed mice
Protocol: To start the experiment the mice were forced fed and/or injected i.p. with butyrate (which promotes COX-2 activity), ibuprofen (which inhibits COX activity) or saline (control) daily from day −3 to day 4. On day 0, the mice were fed by gastric feeding whey proteins (3 mg/g of body weight) or same volume of saline water. Gavage products were dissolved in 0.3 ml of saline water. At day 4 of each experiment, all mice were immunized by intraperitoneal injection of 0.08 mg of BLG as well as 0.08 mg of OVA in 0.04 ml sterile saline mixed with 0.16 ml 2% Al(OH)3 (Superfos Biosecotr A/S, Denmark). At day 4 or at day 26, blood samples were obtained from cardiac aortic punction under 3% Isoflurane anaesthesia (Abbott SA). Immediately after death, obtained by cervical dislocation, spleens were removed and pooled according to group of treatment in 20 ml chilled RPMI supplemented with 5% FCS. Spleen cell solutions were homogenized through a cellular sieve (Falcon) and purified from red cells using Histopaque density centrifugation (Sigma) at 390×g for 20 min. […] (^3H)Tdr (Amersham, Zurich) was added for the final 6 hours of culture and the plates were harvested and analyzed by scintillation counting (TopCount, Canberra Packard, Zurich). […] Stimulation indices were calculated as the ratio of blank-subtracted test and control values at 2.5 mg BLG/mL and 50 μg PHA/mL. […]

[4] = system: BLG-stimulated lymphocytes; assay: Prostaglandin E2 measurement (EIA) in culture media of lymphocytes from treated mice; conditions: mice fed whey proteins 3 mg/g on day 0; drug daily day -3 to day 4; 5 days after tolerization; whey vs non-tolerized control mice, drugs vs whey proteins fed mice
Protocol: To start the experiment the mice were forced fed and/or injected i.p. with butyrate (which promotes COX-2 activity), ibuprofen (which inhibits COX activity) or saline (control) daily from day −3 to day 4. On day 0, the mice were fed by gastric feeding whey proteins (3 mg/g of body weight) or same volume of saline water. Gavage products were dissolved in 0.3 ml of saline water. At day 4 of each experiment, all mice were immunized by intraperitoneal injection of 0.08 mg of BLG as well as 0.08 mg of OVA in 0.04 ml sterile saline mixed with 0.16 ml 2% Al(OH)3 (Superfos Biosecotr A/S, Denmark). At day 4 or at day 26, blood samples were obtained from cardiac aortic punction under 3% Isoflurane anaesthesia (Abbott SA). Immediately after death, obtained by cervical dislocation, spleens were removed and pooled according to group of treatment in 20 ml chilled RPMI supplemented with 5% FCS. […] (^3H)Tdr (Amersham, Zurich) was added for the final 6 hours of culture and the plates were harvested and analyzed by scintillation counting (TopCount, Canberra Packard, Zurich). […] Stimulation indices were calculated as the ratio of blank-subtracted test and control values at 2.5 mg BLG/mL and 50 μg PHA/mL. PGE2 levels in the culture media, from lymphocytes cultured for 6 hrs or 12 hrs, were determined by using an enzyme immunoassay (EIA) kit (Cayman Chemical, ). […]

CC(C)Cc1ccc(C(C)C(=O)O)cc1 (stereo not shown) [ibuprofen]
not observed: INF-γ production by BLG-stimulated lymphocytes in culture [1] | humoral anti-BLG IgE titers [2] | proliferative response index (stimulation index) [3] | PGE2 production by BLG-stimulated lymphocytes in culture [4]

— patent US20030232057A1, “Method and composition for inducing tolerance to an antigenic material” (priority 2000, published 2003)
